Results as given in PubChem BioAssay (NCI).
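Test compounds were applied to cells in 96-well plates for 48 hours at 5 doses. GI50 is the concentration that inhibits growth by half. TGI denotes the concentration required for complete inhibition of growth.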

Legend:
Test in all cases: DTP human tumour cell line panel, 48 h; in the data active = GI50 below about 0.43 µM; inactive = the rest
786-0 renal = system: 786-0 renal
A498 renal = system: A498 renal
A549 NSCLC = system: A549 NSCLC
ACHN renal = system: ACHN renal
BT-549 breast = system: BT-549 breast
CAKI-1 renal = system: CAKI-1 renal
CCRF-CEM leukemia = system: CCRF-CEM leukemia
COLO 205 colon = system: COLO 205 colon
DU-145 prostate = system: DU-145 prostate
EKVX NSCLC = system: EKVX NSCLC
HCT-116 colon = system: HCT-116 colon
HCT-15 colon = system: HCT-15 colon
HL-60(TB) leukemia = system: HL-60(TB) leukemia
HOP-62 NSCLC = system: HOP-62 NSCLC
HOP-92 NSCLC = system: HOP-92 NSCLC
HS 578T breast = system: HS 578T breast
HT29 colon = system: HT29 colon
IGROV1 ovarian = system: IGROV1 ovarian
K-562 leukemia = system: K-562 leukemia
KM12 colon = system: KM12 colon
LOX IMVI melanoma = system: LOX IMVI melanoma
M14 melanoma = system: M14 melanoma
MALME-3M melanoma = system: MALME-3M melanoma
MCF7 breast = system: MCF7 breast
MDA-MB-231 breast = system: MDA-MB-231 breast
MDA-MB-435 = system: MDA-MB-435
MOLT-4 leukemia = system: MOLT-4 leukemia
NCI-H226 lung = system: NCI-H226 lung
NCI-H23 lung = system: NCI-H23 lung
NCI-H460 lung = system: NCI-H460 lung
NCI/ADR-RES ovarian = system: NCI/ADR-RES ovarian
OVCAR-3 ovarian = system: OVCAR-3 ovarian
OVCAR-4 ovarian = system: OVCAR-4 ovarian
OVCAR-5 ovarian = system: OVCAR-5 ovarian
OVCAR-8 ovarian = system: OVCAR-8 ovarian
PC-3 prostate = system: PC-3 prostate
RPMI-8226 leukemia = system: RPMI-8226 leukemia
RXF 393 renal = system: RXF 393 renal
SF-268 CNS = system: SF-268 CNS
SF-295 CNS = system: SF-295 CNS
SF-539 CNS = system: SF-539 CNS
SK-MEL-2 melanoma = system: SK-MEL-2 melanoma
SK-MEL-28 melanoma = system: SK-MEL-28 melanoma
SK-MEL-5 melanoma = system: SK-MEL-5 melanoma
SK-OV-3 ovarian = system: SK-OV-3 ovarian
SN12C renal = system: SN12C renal
SNB-19 CNS = system: SNB-19 CNS
SNB-75 CNS = system: SNB-75 CNS
SR leukemia = system: SR leukemia
SW-620 colon = system: SW-620 colon
T-47D breast = system: T-47D breast
TK-10 renal = system: TK-10 renal
U251 CNS = system: U251 CNS
UACC-257 melanoma = system: UACC-257 melanoma
UACC-62 melanoma = system: UACC-62 melanoma
UO-31 renal = system: UO-31 renal

COc1ccc2c(c1)OCC1c3cc(O)ccc3OC21 (configuration not stated)
27.3 µM: TGI (HL-60(TB) leukemia)
65.4 µM: TGI (T-47D breast)
74 µM: TGI (SF-268 CNS)
inactive: GI50 (786-0 renal) 78.9 µM | GI50 (A498 renal) 40.2 µM | GI50 (A549 NSCLC) 60.9 µM | GI50 (ACHN renal) 35.8 µM | GI50 (BT-549 breast) 39 µM | GI50 (CAKI-1 renal) 32.5 µM | GI50 (CCRF-CEM leukemia) 25.1 µM | GI50 (COLO 205 colon) 32.7 µM | GI50 (DU-145 prostate) 75.8 µM | GI50 (EKVX NSCLC) 27.8 µM | GI50 (HCT-116 colon) 51.4 µM | GI50 (HCT-15 colon) 40.6 µM | GI50 (HL-60(TB) leukemia) 3.16 µM | GI50 (HOP-62 NSCLC) > 100 µM | GI50 (HOP-92 NSCLC) 39.6 µM | GI50 (HS 578T breast) 41.2 µM | GI50 (HT29 colon) 47.5 µM | GI50 (IGROV1 ovarian) 36 µM | GI50 (K-562 leukemia) 63.5 µM | GI50 (KM12 colon) 38.7 µM | GI50 (LOX IMVI melanoma) 42.1 µM | GI50 (M14 melanoma) 72.5 µM | GI50 (MALME-3M melanoma) 60.2 µM | GI50 (MCF7 breast) 12.8 µM | GI50 (MDA-MB-231 breast) 13.7 µM | GI50 (MDA-MB-435) 44.8 µM | GI50 (MOLT-4 leukemia) 35.4 µM | GI50 (NCI-H226 lung) 18.6 µM | GI50 (NCI-H23 lung) 30.1 µM | GI50 (NCI-H460 lung) 25 µM | GI50 (NCI/ADR-RES ovarian) 33.2 µM | GI50 (OVCAR-3 ovarian) 27 µM | GI50 (OVCAR-4 ovarian) 28.1 µM | GI50 (OVCAR-5 ovarian) 39.5 µM | GI50 (OVCAR-8 ovarian) > 100 µM | GI50 (PC-3 prostate) 34.4 µM | GI50 (RPMI-8226 leukemia) 32.8 µM | GI50 (RXF 393 renal) 72.6 µM | GI50 (SF-268 CNS) 11 µM | GI50 (SF-295 CNS) 9.91 µM | GI50 (SF-539 CNS) 54.5 µM | GI50 (SK-MEL-2 melanoma) > 100 µM | GI50 (SK-MEL-28 melanoma) > 100 µM | GI50 (SK-MEL-5 melanoma) 33 µM | GI50 (SK-OV-3 ovarian) 63.2 µM | GI50 (SN12C renal) 73.3 µM | GI50 (SNB-19 CNS) 52.1 µM | GI50 (SNB-75 CNS) 34 µM | GI50 (SR leukemia) 46.3 µM | GI50 (SW-620 colon) > 100 µM | GI50 (T-47D breast) 16.2 µM | GI50 (TK-10 renal) 38.9 µM | GI50 (U251 CNS) 54.9 µM | GI50 (UACC-257 melanoma) 78.3 µM | GI50 (UACC-62 melanoma) 35.9 µM | GI50 (UO-31 renal) 24.3 µM
99.4 µM: TGI (IGROV1 ovarian)
> 100 µM: TGI (786-0 renal) | TGI (A498 renal) | TGI (A549 NSCLC) | TGI (ACHN renal) | TGI (BT-549 breast) | TGI (CAKI-1 renal) | TGI (CCRF-CEM leukemia) | TGI (COLO 205 colon) | TGI (DU-145 prostate) | TGI (EKVX NSCLC) | TGI (HCT-116 colon) | TGI (HCT-15 colon) | TGI (HOP-62 NSCLC) | TGI (HOP-92 NSCLC) | TGI (HS 578T breast) | TGI (HT29 colon) | TGI (K-562 leukemia) | TGI (KM12 colon) | TGI (LOX IMVI melanoma) | TGI (M14 melanoma) | TGI (MALME-3M melanoma) | TGI (MDA-MB-435) | TGI (MOLT-4 leukemia) | TGI (NCI-H226 lung) | TGI (NCI-H23 lung) | TGI (NCI-H460 lung) | TGI (NCI/ADR-RES ovarian) | TGI (OVCAR-3 ovarian) | TGI (OVCAR-4 ovarian) | TGI (OVCAR-5 ovarian) | TGI (OVCAR-8 ovarian) | TGI (PC-3 prostate) | TGI (RPMI-8226 leukemia) | TGI (RXF 393 renal) | TGI (SF-539 CNS) | TGI (SK-MEL-2 melanoma) | TGI (SK-MEL-28 melanoma) | TGI (SK-MEL-5 melanoma) | TGI (SK-OV-3 ovarian) | TGI (SN12C renal) | TGI (SNB-19 CNS) | TGI (SNB-75 CNS) | TGI (SR leukemia) | TGI (SW-620 colon) | TGI (TK-10 renal) | TGI (U251 CNS) | TGI (UACC-257 melanoma) | TGI (UACC-62 melanoma) | TGI (UO-31 renal)
86.4 µM: TGI (MCF7 breast)
92.2 µM: TGI (MDA-MB-231 breast)
90.9 µM: TGI (SF-295 CNS)
